Measurements from the supplement of paper PMC10627819.

Experiments:
Test in all cases: fitness (endpoint OD595 vs no drug) (fraction); higher = more growth
S. aureus Newman = system: S. aureus Newman
Summary of the method: (§1)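 Fitness is computed from the optical density at which cultures reach stationary phase, divided by the robust mean of no-drug control wells. Any value above 1 is set to 1. Cultures started at OD595 0.01 in 384-well plates with TSB, LB Lennox or CY at 37 °C, and OD595 was read every 30 min for 14 h against a first-reading background.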

S. aureus DSM 20231 = system: S. aureus DSM 20231
Summary of the method: as §1

B. subtilis 168 = system: B. subtilis 168
Summary of the method: as §1
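Note: OD595 on entry to stationary phase over no-drug wells; at most 1.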

N[C@@H]1CONC1=O [Cycloserine D] + COc1cccc2c1C(=O)c1c(O)c3c(c(O)c1C2=O)C[C@@](O)(C(=O)CO)C[C@@H]3O[C@H]1C[C@H](N)[C@H](O)[C@H](C)O1 [Doxorubicin]
fitness
Conditions	first compound 0.125 µg/mL	first compound 0.25 µg/mL	first compound 0.375 µg/mL	first compound 0.5 µg/mL	first compound 0.75 µg/mL	first compound 1.5 µg/mL
B. subtilis 168, partner 0.625 µg/mL	0.976	0.959	–	0.921	–	–
B. subtilis 168, partner 1.25 µg/mL	0.919	0.939	–	0.891	–	–
B. subtilis 168, partner 2.5 µg/mL	0.754	0.704	–	0.722	–	–
S. aureus DSM 20231, partner 0.625 µg/mL	–	–	0.942	–	0.898	0.905
S. aureus DSM 20231, partner 1.25 µg/mL	–	–	0.867	–	0.891	0.953
S. aureus DSM 20231, partner 2.5 µg/mL	–	–	0.861	–	0.841	0.774
S. aureus Newman, partner 0.625 µg/mL	–	–	0.796	–	0.809	0.827
S. aureus Newman, partner 1.25 µg/mL	–	–	0.797	–	0.797	0.799
S. aureus Newman, partner 2.5 µg/mL	–	–	0.748	–	0.75	0.771

N[C@@H]1CONC1=O [Cycloserine D] + C[C@@H]1O[C@@H]1P(=O)(O)O [Fosfomycin]
fitness
Conditions	first compound 0.125 µg/mL	first compound 0.25 µg/mL	first compound 0.375 µg/mL	first compound 0.5 µg/mL	first compound 0.75 µg/mL	first compound 1.5 µg/mL
B. subtilis 168, partner 1.562 µg/mL	0.71	0.666	–	0.679	–	–
B. subtilis 168, partner 3.124 µg/mL	0.608	0.583	–	0.592	–	–
B. subtilis 168, partner 6.248 µg/mL	0.479	0.504	–	0.453	–	–
S. aureus DSM 20231, partner 0.781 µg/mL	–	–	0.724	–	0.703	0.764
S. aureus DSM 20231, partner 1.562 µg/mL	–	–	0.586	–	0.577	0.597
S. aureus DSM 20231, partner 3.124 µg/mL	–	–	0.451	–	0.471	0.481
S. aureus Newman, partner 0.781 µg/mL	–	–	0.64	–	0.623	0.669
S. aureus Newman, partner 1.562 µg/mL	–	–	0.516	–	0.518	0.514
S. aureus Newman, partner 3.124 µg/mL	–	–	0.165	–	0.201	0.172

N[C@@H]1CONC1=O [Cycloserine D] + C[n+]1ccc(-c2cc[n+](C)cc2)cc1 [Paraquat]
fitness
Conditions	first compound 0.125 µg/mL	first compound 0.25 µg/mL	first compound 0.375 µg/mL	first compound 0.5 µg/mL	first compound 0.75 µg/mL	first compound 1.5 µg/mL
B. subtilis 168, partner 1.25 µg/mL	0.939	0.919	–	0.958	–	–
B. subtilis 168, partner 2.5 µg/mL	0.911	0.905	–	0.899	–	–
B. subtilis 168, partner 5 µg/mL	0.842	0.787	–	0.746	–	–
S. aureus DSM 20231, partner 1.25 µg/mL	–	–	0.976	–	0.978	0.964
S. aureus DSM 20231, partner 2.5 µg/mL	–	–	≥ 1	–	0.977	≥ 1
S. aureus DSM 20231, partner 5 µg/mL	–	–	0.977	–	0.983	0.965
S. aureus Newman, partner 1.25 µg/mL	–	–	0.962	–	0.871	0.899
S. aureus Newman, partner 2.5 µg/mL	–	–	0.979	–	0.966	0.984
S. aureus Newman, partner 5 µg/mL	–	–	0.938	–	0.969	0.93
